Results from patent publication US20140066431A1, “Benzoxazepines as Inhibitors of PI3K/mTOR and Methods of Their Use and Manufacture” (Exelixis, Inc., priority 2010, published 2014).

What was measured:
[1] = tested on: SK-BR-3 (PI3Kα wild-type); experiment: pAKT (T308) ELISA assay, SK-BR-3; format: cell-based; conditions: Homo sapiens, PI3Kαwt, hereg, read-out: Cellular pAKT (T308) IC50 SK-BR-3
Protocol: (§1) In another embodiment, the pAKT ELISA Assay was performed by seeding cells onto 96-well plates (Corning, 3904) in their respective growth media at the densities listed in Table 3. Cells were incubated at 37° C., 5% CO2 for 48 h (except MDA-MB-453 cells which were cultured in the absence of CO2). Compounds were serially diluted in DMSO and subsequently diluted in serum-free DMEM. Test compounds were added to cells in serum-free DMEM at a final concentration of 0.3% DMSO and incubated for 3 h. Cells were lysed with 130 μL of ice-cold RIPA lysis buffer (50 mM Tris-HCl, pH 7.5; 0.5% sodium deoxycholic acid; 1% Triton X-100; 0.1% SDS; 150 mM NaCl) with protease and phosphatase inhibitors (1 mM EDTA, 1 mM NaF, 20 mM β-glycerophosphate, 1 mM Na-orthovanadate, Complete-Mini EDTA-free, Roche, 11836170001, and Phosphatase Inhibitor Cocktail I, Sigma, P2850), directly in 96-well plates. Cells were lysed on ice for 60-120 min at 4° C. The supernatants were added directly to capture ELISA plates previously pre-coated with rabbit anti-AKT capture antibody. […] The wells were measured for luminescence using a Wallac plate reader at wavelength of 560 nm. After normalization of pAKT signal to total AKT1 signal, IC50 values were determined relative to the DMSO-treated control.

PI3Kβ = PI3Kβ (Homo sapiens, UniProt P42338); experiment: PI3K biochemical assay, PI3Kβ
Protocol: PI3Kα activity is measured as the percent of ATP consumed following the kinase reaction using luciferase-luciferin-coupled chemiluminescence. Reactions were conducted in 384-well white, medium binding microtiter plates (Greiner). Kinase reactions were initiated by combining test compounds, ATP, substrate (PIP2), and kinase in a 20 μL volume in a buffer solution. The standard PI3Kalpha assay buffer is composed 50 mM Tris, pH 7.5, 1 mM EGTA, 10 mM MgCl2, 1 mM DTT and 0.03% CHAPS. The standard assay concentrations for enzyme, ATP, and substrate are 1.5 nM, 1 μM, and 10 μM, respectively. The reaction mixture was incubated at ambient temperature for approximately 2 h. Following the kinase reaction, a 10 μL aliquot of luciferase-luciferin mix (Promega Kinase-Glo) was added and the chemiluminescence signal measured using a Victor2 plate reader (Perkin Elmer). […] Substituting PI3Kα with PI3Kβ, PI3Kγ, or PI3Kδ, the inhibitory activity of the compounds for the other isoforms of I3K were measured.

[2] = tested on: MDA-MB-453 (PI3Kα H1047R); experiment: pAKT (T308) ELISA assay, MDA-MB-453; format: cell-based; conditions: Homo sapiens, PI3KαH1047R, hereg, read-out: Cellular pAKT (T308) IC50 MDA-MB-453
Protocol: as §1

[3] = tested on: PC3 (PTEN null) cellular model; experiment: pAKT (T308) ELISA assay, PC3; format: cell-based; conditions: Homo sapiens; IGF1 stimulation
Protocol: Cells were incubated at 37° C., 5% CO2 for 48 h (except MDA-MB-453 cells which were cultured in the absence of CO2). Compounds were serially diluted in DMSO and subsequently diluted in serum-free DMEM. Test compounds were added to cells in serum-free DMEM at a final concentration of 0.3% DMSO and incubated for 3 h. Cells were lysed with 130 μL of ice-cold RIPA lysis buffer (50 mM Tris-HCl, pH 7.5; 0.5% sodium deoxycholic acid; 1% Triton X-100; 0.1% SDS; 150 mM NaCl) with protease and phosphatase inhibitors (1 mM EDTA, 1 mM NaF, 20 mM β-glycerophosphate, 1 mM Na-orthovanadate, Complete-Mini EDTA-free, Roche, 11836170001, and Phosphatase Inhibitor Cocktail I, Sigma, P2850), directly in 96-well plates. Cells were lysed on ice for 60-120 min at 4° C. The supernatants were added directly to capture ELISA plates previously pre-coated with rabbit anti-AKT capture antibody. ELISA assays for pAKT(T308) and total AKT were performed with the pAKT(T308) ELISA kit (Cell Signaling Technology, 7144) and AKT1 ELISA kit (Cell Signaling Technology, 7142). For the pAKT(T308) ELISA, 85 μL of cell lysate was added to each well. For the total AKT1 ELISA, 15 μL of cell lysate and 85 μL of Starting Block buffer (Pierce, 37543) were added to each well.

PI3Kδ = PI3Kδ (Homo sapiens, UniProt O00329); experiment: PI3K biochemical assay, PI3Kδ; conditions: PIP2 as substrate
Protocol: PI3Kα activity is measured as the percent of ATP consumed following the kinase reaction using luciferase-luciferin-coupled chemiluminescence. Reactions were conducted in 384-well white, medium binding microtiter plates (Greiner). Kinase reactions were initiated by combining test compounds, ATP, substrate (PIP2), and kinase in a 20 μL volume in a buffer solution. The standard PI3Kalpha assay buffer is composed 50 mM Tris, pH 7.5, 1 mM EGTA, 10 mM MgCl2, 1 mM DTT and 0.03% CHAPS. The standard assay concentrations for enzyme, ATP, and substrate are 1.5 nM, 1 μM, and 10 μM, respectively. The reaction mixture was incubated at ambient temperature for approximately 2 h. Following the kinase reaction, a 10 μL aliquot of luciferase-luciferin mix (Promega Kinase-Glo) was added and the chemiluminescence signal measured using a Victor2 plate reader (Perkin Elmer). Total ATP consumption was limited to 40-60% and IC50 values of control compounds correlate well with literature references. Substituting PI3Kα with PI3Kβ, PI3Kγ, or PI3Kδ, the inhibitory activity of the compounds for the other isoforms of I3K were measured.

Chain of PI3Kδ (O00329 whole entry): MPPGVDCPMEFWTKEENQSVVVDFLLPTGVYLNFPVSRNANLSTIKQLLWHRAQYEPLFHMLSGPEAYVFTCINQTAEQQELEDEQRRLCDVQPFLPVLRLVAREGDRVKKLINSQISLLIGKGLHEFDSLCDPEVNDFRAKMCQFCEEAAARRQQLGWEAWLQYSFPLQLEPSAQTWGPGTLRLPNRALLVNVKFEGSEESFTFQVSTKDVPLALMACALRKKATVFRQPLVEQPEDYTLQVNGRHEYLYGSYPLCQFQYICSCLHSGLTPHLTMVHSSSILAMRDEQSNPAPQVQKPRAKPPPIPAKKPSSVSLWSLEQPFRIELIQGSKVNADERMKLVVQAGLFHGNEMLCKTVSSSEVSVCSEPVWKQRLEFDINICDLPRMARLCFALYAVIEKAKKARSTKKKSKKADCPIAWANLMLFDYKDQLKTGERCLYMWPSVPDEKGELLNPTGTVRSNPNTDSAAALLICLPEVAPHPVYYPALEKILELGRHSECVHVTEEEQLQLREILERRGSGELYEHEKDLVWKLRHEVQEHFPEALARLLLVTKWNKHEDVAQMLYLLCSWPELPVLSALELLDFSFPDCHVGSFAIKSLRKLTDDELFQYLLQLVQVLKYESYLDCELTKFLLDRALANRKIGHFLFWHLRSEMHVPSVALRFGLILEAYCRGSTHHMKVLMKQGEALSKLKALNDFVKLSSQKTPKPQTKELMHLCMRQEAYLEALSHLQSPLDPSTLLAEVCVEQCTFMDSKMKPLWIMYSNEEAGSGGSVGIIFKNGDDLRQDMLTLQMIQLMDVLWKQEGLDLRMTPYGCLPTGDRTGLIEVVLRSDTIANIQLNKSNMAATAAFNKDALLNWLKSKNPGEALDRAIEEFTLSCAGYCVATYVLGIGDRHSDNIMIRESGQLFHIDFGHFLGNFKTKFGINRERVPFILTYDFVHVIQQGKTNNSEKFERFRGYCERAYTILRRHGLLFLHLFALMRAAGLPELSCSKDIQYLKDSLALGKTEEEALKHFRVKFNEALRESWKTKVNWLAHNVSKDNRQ
Chain of PI3Kδ (P27986 whole entry partner): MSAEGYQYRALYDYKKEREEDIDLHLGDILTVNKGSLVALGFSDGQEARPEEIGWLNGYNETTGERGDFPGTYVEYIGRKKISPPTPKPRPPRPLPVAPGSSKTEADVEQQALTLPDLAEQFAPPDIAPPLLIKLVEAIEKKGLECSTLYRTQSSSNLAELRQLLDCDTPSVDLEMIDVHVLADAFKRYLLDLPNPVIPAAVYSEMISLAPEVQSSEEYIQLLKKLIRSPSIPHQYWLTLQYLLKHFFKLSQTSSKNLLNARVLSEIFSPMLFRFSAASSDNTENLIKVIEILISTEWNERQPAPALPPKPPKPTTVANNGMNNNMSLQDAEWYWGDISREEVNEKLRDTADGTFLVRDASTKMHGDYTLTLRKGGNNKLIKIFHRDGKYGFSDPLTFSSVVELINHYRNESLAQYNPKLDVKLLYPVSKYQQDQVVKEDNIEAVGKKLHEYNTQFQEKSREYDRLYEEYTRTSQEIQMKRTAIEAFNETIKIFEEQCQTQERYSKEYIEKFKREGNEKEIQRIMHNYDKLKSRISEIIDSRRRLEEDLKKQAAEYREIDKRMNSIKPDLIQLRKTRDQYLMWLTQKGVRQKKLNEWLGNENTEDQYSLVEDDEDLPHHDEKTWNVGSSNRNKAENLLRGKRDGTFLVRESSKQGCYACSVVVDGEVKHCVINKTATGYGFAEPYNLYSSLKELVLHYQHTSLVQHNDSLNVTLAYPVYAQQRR
Chain of PI3Kβ (P42338 whole entry): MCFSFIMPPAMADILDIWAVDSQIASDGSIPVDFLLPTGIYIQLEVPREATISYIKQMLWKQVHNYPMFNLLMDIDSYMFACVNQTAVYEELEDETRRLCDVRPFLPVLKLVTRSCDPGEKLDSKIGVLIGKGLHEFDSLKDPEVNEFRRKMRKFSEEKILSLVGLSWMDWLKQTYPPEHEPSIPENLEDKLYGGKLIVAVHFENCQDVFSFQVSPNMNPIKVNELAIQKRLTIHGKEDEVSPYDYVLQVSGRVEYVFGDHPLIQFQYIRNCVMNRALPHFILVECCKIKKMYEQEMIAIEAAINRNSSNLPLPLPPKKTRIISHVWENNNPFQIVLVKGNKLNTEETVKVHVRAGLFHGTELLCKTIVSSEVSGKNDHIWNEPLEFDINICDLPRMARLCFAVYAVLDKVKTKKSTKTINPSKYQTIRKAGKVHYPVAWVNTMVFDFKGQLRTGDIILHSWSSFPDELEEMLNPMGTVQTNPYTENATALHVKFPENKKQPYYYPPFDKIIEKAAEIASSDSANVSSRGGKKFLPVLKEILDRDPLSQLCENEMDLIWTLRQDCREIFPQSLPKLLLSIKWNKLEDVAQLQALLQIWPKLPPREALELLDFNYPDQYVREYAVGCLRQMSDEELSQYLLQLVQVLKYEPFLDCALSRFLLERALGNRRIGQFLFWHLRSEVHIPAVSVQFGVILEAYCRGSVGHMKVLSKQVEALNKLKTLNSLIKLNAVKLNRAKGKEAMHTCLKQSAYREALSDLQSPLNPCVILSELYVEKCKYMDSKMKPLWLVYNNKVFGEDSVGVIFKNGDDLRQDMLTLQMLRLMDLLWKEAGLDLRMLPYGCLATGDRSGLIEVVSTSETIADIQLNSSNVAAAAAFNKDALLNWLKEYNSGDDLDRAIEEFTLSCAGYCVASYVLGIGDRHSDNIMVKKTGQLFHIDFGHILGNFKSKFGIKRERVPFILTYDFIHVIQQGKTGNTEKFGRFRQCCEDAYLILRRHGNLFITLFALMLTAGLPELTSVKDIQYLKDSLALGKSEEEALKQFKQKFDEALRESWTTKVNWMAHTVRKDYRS
Chain of PI3Kβ (P27986 whole entry partner): as the sequence (P27986 whole entry partner) above

IC50 [1]: > 30 µM
activity against PI3Kβ (in words) (PI3Kβ): active
IC50 [2]: > 30 µM
IC50 [3]: 11.2 µM
IC50 (PI3Kδ): 0.142 µM
SMILES: Cc1cc(C(C)Nc2ccccc2)c2nc(N3CCOCC3)cc(=O)n2c1 (centres unmarked) [TGX-221, 7-methyl-2-(4-morpholinyl)-9-[1-(phenylamino)ethyl]-4H-pyrido[1,2-a]pyrimidin-4-one]
